# Laboratory results: US6737383B1, “Herbicidal oxadiazolidines” (priority 1999, dated 2004)
# Experiments:
# surinam grass = assay: Test B pre/postemergence surinam grass; assay type: in vivo, Brachiaria decumbens
# Outline: (§1)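 Herbicidal effect was estimated by eye on a ten-point control scale after plants spent twelve to sixteen days in a greenhouse following soil or foliar treatment. Foliar sprays targeted plants at one to four leaves; all doses were formulated in a non-phytotoxic solvent with surfactant.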
# cocklebur = assay: Test B pre/postemergence cocklebur; assay type: in vivo, Xanthium strumarium
# Outline: as §1
# corn = assay: Test B pre/postemergence corn; assay type: in vivo, Zea mays
# Outline: as §1
# crabgrass = assay: Test B pre/postemergence crabgrass; assay type: in vivo, Digitaria sanguinalis
# Outline: as §1
# giant foxtail = assay: Test B pre/postemergence giant foxtail; assay type: in vivo, Setaria faberii
# Outline: as §1
# morningglory = assay: Test B pre/postemergence morningglory; assay type: in vivo, Ipomoea hederacea
# Outline: as §1
# pigweed = assay: Test B pre/postemergence pigweed; assay type: in vivo, Amaranthus retroflexus
# Outline: as §1
# rape = assay: Test B pre/postemergence rape; assay type: in vivo, Brassica napus
# Outline: as §1
# soybean = assay: Test B pre/postemergence soybean; assay type: in vivo, Glycine max
# Outline: as §1
# sugar beet = assay: Test B pre/postemergence sugar beet; assay type: in vivo, Beta vulgaris
# Outline: as §1
# wild oat = assay: Test B pre/postemergence wild oat; assay type: in vivo, Avena fatua
# Outline: as §1
# purple nutsedge = assay: Test B pre/postemergence purple nutsedge; assay type: in vivo, Cyperus rotundus
# Outline: as §1
# rice = assay: Test B flood test rice; assay type: in vivo, Oryza sativa
# Outline: (§2)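 Plants were grown to the 2-leaf stage before treatment with test chemical, then held in a greenhouse for twelve to sixteen days. Injury was visually rated against untreated controls on a 0–10 scale, where 0 is no effect and 10 is complete control.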
# smallflower flatsedge = assay: Test B flood test smallflower flatsedge; assay type: in vivo, Cyperus difformis
# Outline: as §2
# duck salad = assay: Test B flood test duck salad; assay type: in vivo, Heteranthera limosa
# Outline: as §2
# bamyardgrass = assay: Test B flood test barnyardgrass; assay type: in vivo, Echinochloa crus-galli
# Outline: as §2
# [1] = Postemergence, Rate 500 g/ha, scale of 0 to 10 where 0 is no effect and 10 is complete control
# [2] = Preemergence, Rate 62 g/ha, scale of 0 to 10 where 0 is no effect and 10 is complete control
# [3] = Preemergence, Rate 125 g/ha, scale of 0 to 10 where 0 is no effect and 10 is complete control
# [4] = Preemergence, Rate 250 g/ha, scale 0 to 10, 0 is no effect, 10 is complete control
# [5] = Preemergence, Rate 500 g/ha, scale 0 to 10, 0 is no effect, 10 is complete control
# [6] = Rate 62 g/ha, Postemergence, scale 0 to 10 (0 no effect, 10 complete control)
# [7] = Rate 125 g/ha, Postemergence, scale 0 to 10, 0 is no effect, 10 is complete control
# [8] = Postemergence, Rate 250 g/ha, scale 0 to 10
# [9] = Rate 62 g/ha, flood test species, Pre-emergence, visual evaluation after twelve to sixteen days
# [10] = Rate 125 g/ha, under heading Pre-emergence, flood test species, visual evaluation after twelve to sixteen days
# [11] = Rate 250 g/ha, Pre-emergence (flood test species), scale 0 to 10, 0 is no effect, 10 is complete control
# [12] = Rate 500 g/ha, Pre-emergence, flood test species, scale 0 to 10 (0 no effect, 10 complete control)
compound,measurement,setting,value
CC(C)N(C(=O)n1oc(=O)n(CCC#N)c1=O)c1ccc(Cl)cc1 [Compound 444],B. signalgrass plant response rating,"surinam grass; Postemergence, Rate 250 g/ha, scale 0 to 10, 0 no effect, 10 complete control",4
same,B. signalgrass plant response rating,surinam grass; [1],4
same,"Plant response rating, B. signalgrass",surinam grass; [2],0
same,"Plant response rating, B. signalgrass",surinam grass; [3],0
same,B. signalgrass plant response rating,surinam grass; [4],1
same,B. signalgrass plant response rating,surinam grass; [5],8
same,B. signalgrass plant response rating,surinam grass; [6],0
same,B. signalgrass plant response rating,surinam grass; [7],0
same,Cocklebur plant response rating,cocklebur; [8],0
same,Cocklebur plant response rating,cocklebur; [1],0
same,"Plant response rating, Cocklebur",cocklebur; [2],0
same,"Plant response rating, Cocklebur",cocklebur; [3],0
same,Cocklebur plant response rating,cocklebur; [4],0
same,Cocklebur plant response rating,cocklebur; [5],0
same,Cocklebur plant response rating,cocklebur; [6],0
same,Cocklebur plant response rating,cocklebur; [7],0
same,Corn plant response rating,corn; [8],0
same,Corn plant response rating,corn; [1],0
same,"Plant response rating, Corn",corn; [2],0
same,"Plant response rating, Corn",corn; [3],0
same,Corn plant response rating,corn; [4],0
same,Corn plant response rating,corn; [5],0
same,Corn plant response rating,corn; [6],0
same,Corn plant response rating,corn; [7],0
same,Crabgrass plant response rating,crabgrass; [8],9
same,Crabgrass plant response rating,crabgrass; [1],9
same,"Plant response rating, Crabgrass",crabgrass; [2],4
same,"Plant response rating, Crabgrass",crabgrass; [3],5
same,Crabgrass plant response rating,crabgrass; [4],9
same,Crabgrass plant response rating,crabgrass; [5],10
same,Crabgrass plant response rating,crabgrass; [6],2
same,Crabgrass plant response rating,crabgrass; [7],2
same,Giant foxtail plant response rating,giant foxtail; [8],8
same,Giant foxtail plant response rating,giant foxtail; [1],9
same,"Plant response rating, Giant foxtail",giant foxtail; [2],9
same,"Plant response rating, Giant foxtail",giant foxtail; [3],9
same,Giant foxtail plant response rating,giant foxtail; [4],10
same,Giant foxtail plant response rating,giant foxtail; [5],10
same,Giant foxtail plant response rating,giant foxtail; [6],4
same,Giant foxtail plant response rating,giant foxtail; [7],7
same,Morningglory plant response rating,morningglory; [8],1
same,Morningglory plant response rating,morningglory; [1],3
same,"Plant response rating, Morningglory",morningglory; [2],0
same,"Plant response rating, Morningglory",morningglory; [3],0
same,Morningglory plant response rating,morningglory; [4],0
same,Morningglory plant response rating,morningglory; [5],0
same,Morningglory plant response rating,morningglory; [6],0
same,Morningglory plant response rating,morningglory; [7],0
same,Redroot pigweed plant response rating,pigweed; [1],2
same,"Plant response rating, Redroot pigweed",pigweed; [2],10
same,"Plant response rating, Redroot pigweed",pigweed; [3],10
same,Redroot pigweed plant response rating,pigweed; [4],10
same,Redroot pigweed plant response rating,pigweed; [5],10
same,Redroot pigweed plant response rating,pigweed; [6],0
same,Redroot pigweed plant response rating,pigweed; [7],2
same,Rape plant response rating,rape; [8],0
same,Rape plant response rating,rape; [1],0
same,"Plant response rating, Rape",rape; [2],0
same,"Plant response rating, Rape",rape; [3],0
same,Rape plant response rating,rape; [4],0
same,Rape plant response rating,rape; [5],2
same,Rape plant response rating,rape; [6],0
same,Rape plant response rating,rape; [7],0
same,Soybean plant response rating,soybean; [8],2
same,Soybean plant response rating,soybean; [1],2
same,"Plant response rating, Soybean",soybean; [2],0
same,"Plant response rating, Soybean",soybean; [3],0
same,Soybean plant response rating,soybean; [4],2
same,Soybean plant response rating,soybean; [5],3
same,Soybean plant response rating,soybean; [6],1
same,Soybean plant response rating,soybean; [7],1
same,Sugarbeets plant response rating,sugar beet; [8],0
same,Sugarbeets plant response rating,sugar beet; [1],3
same,"Plant response rating, Sugarbeets",sugar beet; [2],0
same,"Plant response rating, Sugarbeets",sugar beet; [3],0
same,Sugarbeets plant response rating,sugar beet; [4],0
same,Sugarbeets plant response rating,sugar beet; [5],0
same,Sugarbeets plant response rating,sugar beet; [6],0
same,Sugarbeets plant response rating,sugar beet; [7],0
same,Wild oats plant response rating,wild oat; [8],0
same,Wild oats plant response rating,wild oat; [1],2
same,"Plant response rating, Wild oats",wild oat; [2],0
same,"Plant response rating, Wild oats",wild oat; [3],0
same,Wild oats plant response rating,wild oat; [4],0
same,Wild oats plant response rating,wild oat; [5],4
same,Wild oats plant response rating,wild oat; [6],0
same,Wild oats plant response rating,wild oat; [7],0
same,Nutsedge plant response rating,purple nutsedge; [8],0
same,Nutsedge plant response rating,purple nutsedge; [1],0
same,"Plant response rating, Nutsedge",purple nutsedge; [2],0
same,"Plant response rating, Nutsedge",purple nutsedge; [3],0
same,Nutsedge plant response rating,purple nutsedge; [4],0
same,Nutsedge plant response rating,purple nutsedge; [5],0
same,Nutsedge plant response rating,purple nutsedge; [6],0
same,Nutsedge plant response rating,purple nutsedge; [7],0
same,"Plant response rating, Rice (0 to 10 scale, 0 is no effect, 10 is complete control)",rice; [9],0
same,"Rice plant response rating (0 to 10 scale, 0 is no effect, 10 is complete control)",rice; [10],0
same,Rice plant response rating,rice; [11],0
same,Rice plant response rating,rice; [12],0
same,"Plant response rating, S. Flatsedge (0 to 10 scale, 0 is no effect, 10 is complete control)",smallflower flatsedge; [9],0
same,"S. Flatsedge plant response rating (0 to 10 scale, 0 is no effect, 10 is complete control)",smallflower flatsedge; [10],0
same,S. Flatsedge plant response rating,smallflower flatsedge; [11],0
same,S. Flatsedge plant response rating,smallflower flatsedge; [12],0
same,"Plant response rating, Ducksalad (0 to 10 scale, 0 is no effect, 10 is complete control)",duck salad; [9],0
same,"Ducksalad plant response rating (0 to 10 scale, 0 is no effect, 10 is complete control)",duck salad; [10],0
same,Ducksalad plant response rating,duck salad; [11],0
same,Ducksalad plant response rating,duck salad; [12],0
same,"Plant response rating, Barnyardgrass (0 to 10 scale, 0 is no effect, 10 is complete control)",bamyardgrass; [9],0
same,"Barnyardgrass plant response rating (0 to 10 scale, 0 is no effect, 10 is complete control)",bamyardgrass; [10],0
same,Barnyardgrass plant response rating,bamyardgrass; [11],0
same,Barnyardgrass plant response rating,bamyardgrass; [12],0
